System: winter wheat (Vershin variety)
Test: Winter wheat seed treatment with BHMPA salts: germinating power (length and mass of roots and sprouts)
Assay type: in vivo
Description: Experimental versions—soaking seeds in BHMPA solutions and solutions of BHMPA Ca, Mg, Na, Co, Mn, Cu, and Zn salts at 1·10^−6-1·10^−12% concentrations (doses). The studies were conducted in laboratory in Petri dishes; seed bed—two layers of filter paper. 50 seeds soaked in water (control) and in the solutions of the tested compounds (experimental) were placed into each dish. Wheat, corn, and rice seeds were exposed for one hour.
Seed germination energy and rate were calculated in percent as an arithmetic mean of the four experimental results (germination energy on the 4th day, wheat germination on the 8th day, rice and corn germination—on the 7th day). Germination was determined based on the germinating power indicators (length of the roots and sprouts and their wet and dry mass per 100 shoots).
The effect of pre-sowing seed treatment with the claimed BHMPA salts of biogenic metals was studied on winter wheat (Vershin variety), corn (Krasnodar 385 MV variety), and rice (Diamant variety).
The above data describe the seed viability only at the initial stage of germination, while the germination ability at the later stage of germination is defined by the initial germinating power. The method for the determination of the germinating power comprises measuring the height of the sprouts and primary roots, as well as the biomass and the dry mass thereof per 100 seedlings. [M. A. Kartuzova. Initial Germinating Power as Method of Biological Assessment of Seed Quality. Selection and Seed Farming, #2, 1953].

[1] = all the experiments (1·10^−6% to 1·10^−12%)
[2] = comparative study, 1·10^−12% solution

SMILES: O=P([O-])(CO)CO.O=P([O-])(CO)CO.[Ca+2] [Ca-salt, Calcium BHMPA Salt]
- Length, root (1·10^−6% solution): 7.1 cm
- Length, root, + % to control (1·10^−6% solution): 27%
- Length, sprout (1·10^−6% solution): 6.9 cm
- Length, sprout, + % to control (1·10^−6% solution): 19%
- Mass, dry, root (1·10^−6% solution): 0.45 g/100 plantlings
- Mass, dry, root, + % to control (1·10^−6% solution): 41%
- Mass, dry, sprout (1·10^−6% solution): 0.47 g/100 plantlings
- Mass, dry, sprout, + % to control (1·10^−6% solution): 9%
- Mass, wet, root (1·10^−6% solution): 4.16 g/100 plantlings
- Mass, wet, root, + % to control (1·10^−6% solution): 12%
- Mass, wet, sprout (1·10^−6% solution): 5.32 g/100 plantlings
- Mass, wet, sprout, + % to control (1·10^−6% solution): 5%
- Length, root (1·10^−7% solution): 7.4 cm
- Length, root, + % to control (1·10^−7% solution): 34%
- Length, sprout (1·10^−7% solution): 7.4 cm
- Mass, dry, root (1·10^−7% solution): 0.47 g/100 plantlings
- Mass, dry, root, + % to control (1·10^−7% solution): 47%
- Mass, dry, sprout (1·10^−7% solution): 0.55 g/100 plantlings
- Mass, dry, sprout, + % to control (1·10^−7% solution): 30%
- Mass, wet, root (1·10^−7% solution): 4.89 g/100 plantlings
- Mass, wet, root, + % to control (1·10^−7% solution): 32%
- Mass, wet, sprout (1·10^−7% solution): 5.57 g/100 plantlings
- Mass, wet, sprout, + % to control (1·10^−7% solution): 10%
- Length, root (1·10^−8% solution): 6.5 cm
- Length, root, + % to control (1·10^−8% solution): 18%
- Length, sprout (1·10^−8% solution): 6.4 cm
- Length, sprout, + % to control (1·10^−8% solution): 10%
- Mass, dry, root (1·10^−8% solution): 0.39 g/100 plantlings
- Mass, dry, root, + % to control (1·10^−8% solution): 22%
- Mass, dry, sprout (1·10^−8% solution): 0.45 g/100 plantlings
- Mass, dry, sprout, + % to control (1·10^−8% solution): 5%
- Mass, wet, root (1·10^−8% solution): 4.08 g/100 plantlings
- Mass, wet, root, + % to control (1·10^−8% solution): 10%
- Mass, wet, sprout (1·10^−8% solution): 5.32 g/100 plantlings
- Mass, wet, sprout, + % to control (1·10^−8% solution): 5%
- Length, root (1·10^−9% solution): 6.5 cm
- Length, root, + % to control (1·10^−9% solution): 18%
- Length, sprout (1·10^−9% solution): 6.5 cm
- Length, sprout, + % to control (1·10^−9% solution): 12%
- Mass, dry, root (1·10^−9% solution): 0.41 g/100 plantlings
- Mass, dry, root, + % to control (1·10^−9% solution): 28%
- Mass, dry, sprout (1·10^−9% solution): 0.48 g/100 plantlings
- Mass, dry, sprout, + % to control (1·10^−9% solution): 12%
- Mass, wet, root (1·10^−9% solution): 4.20 g/100 plantlings
- Mass, wet, root, + % to control (1·10^−9% solution): 13%
- Mass, wet, sprout (1·10^−9% solution): 5.36 g/100 plantlings
- Mass, wet, sprout, + % to control (1·10^−9% solution): 5.5%
- Length, root (1·10^−10% solution): 6.6 cm
- Length, root, + % to control (1·10^−10% solution): 20%
- Length, sprout (1·10^−10% solution): 6.5 cm
- Length, sprout, + % to control (1·10^−10% solution): 12%
- Mass, dry, root (1·10^−10% solution): 0.45 g/100 plantlings
- Mass, dry, root, + % to control (1·10^−10% solution): 41%
- Mass, dry, sprout (1·10^−10% solution): 0.53 g/100 plantlings
- Mass, dry, sprout, + % to control (1·10^−10% solution): 23%
- Mass, wet, root (1·10^−10% solution): 4.34 g/100 plantlings
- Mass, wet, root, + % to control (1·10^−10% solution): 17%
- Mass, wet, sprout (1·10^−10% solution): 5.41 g/100 plantlings
- Mass, wet, sprout, + % to control (1·10^−10% solution): 6.5%
- Length, root (1·10^−11% solution): 7.2 cm
- Length, root, + % to control (1·10^−11% solution): 31%
- Length, sprout (1·10^−11% solution): 6.9 cm
- Length, sprout, + % to control (1·10^−11% solution): 19%
- Mass, dry, root (1·10^−11% solution): 0.46 g/100 plantlings
- Mass, dry, root, + % to control (1·10^−11% solution): 44%
- Mass, dry, sprout (1·10^−11% solution): 0.54 g/100 plantlings
- Mass, dry, sprout, + % to control (1·10^−11% solution): 25.5%
- Mass, wet, root (1·10^−11% solution): 4.70 g/100 plantlings
- Mass, wet, root, + % to control (1·10^−11% solution): 27%
- Mass, wet, sprout (1·10^−11% solution): 5.50 g/100 plantlings
- Mass, wet, sprout, + % to control (1·10^−11% solution): 8%
- Length, root (1·10^−12% solution): 7.4 cm
- Length, root, + % to control (1·10^−12% solution): 34%
- Length, sprout (1·10^−12% solution): 7.9 cm
- Length, sprout, + % to control (1·10^−12% solution): 36%
- Mass, dry, root (1·10^−12% solution): 0.48 g/100 plantlings
- Mass, dry, root, + % to control (1·10^−12% solution): 50%
- Mass, dry, sprout (1·10^−12% solution): 0.59 g/100 plantlings
- Mass, dry, sprout, + % to control (1·10^−12% solution): 37%
- Mass, wet, root (1·10^−12% solution): 5.19 g/100 plantlings
- Mass, wet, root, + % to control (1·10^−12% solution): 40%
- Mass, wet, sprout (1·10^−12% solution): 6.55 g/100 plantlings
- Mass, wet, sprout, + % to control (1·10^−12% solution): 29%
- increase in mass of sprouts [1]: 5%-50%
- increase in size of sprouts [1]: 10%-36%
- Length, root [2]: 9.7 cm
- Length, root, + % to control [2]: 11%
- Length, sprout [2]: 6.4 cm
- Length, sprout, + % to control [2]: 3%
- Mass, dry, root [2]: 0.66 g/100 plantlings
- Mass, dry, root, + % to control [2]: 6%
- Mass, dry, sprout [2]: 0.54 g/100 plantlings
- Mass, dry, sprout, + % to control [2]: 6%
- Mass, wet, root [2]: 5.03 g/100 plantlings
- Mass, wet, root, + % to control [2]: 40%
- Mass, wet, sprout [2]: 4.88 g/100 plantlings
- Mass, wet, sprout, + % to control [2]: 23%

From patent publication US10781224B2, “Bis(oxymethyl)phosphinic acid and biogenic metal salts thereof as regulators of plant growth and development” (priority 2016, dated 2020)
